System: Holstein cows
Assay: Milk fatty acid composition after abomasal or ruminal infusion of SDA-enhanced soybean oil in dairy cows (gas chromatography)
Assay type: in vivo
Settings: of the SDA present in the abomasally infused oil; range=36.8 to 41.9%
Text: In this Example, transgenic soybean oil containing SDA was either infused directly in the rumen or directly into the abomasum bypassing the rumen to examine the potential of using SDA-enhanced soybean oil to increase the milk fat content of omega-3 fatty acids in dairy cows and to determine the efficiency of SDA uptake from the digestive tract and transfer to milk fat.
Three multiparous, pregnant, rumen-fistulated Holstein cows averaging 267 days in lactation were assigned randomly to a 3×3 Latin square design. Treatments were: 1) control (no oil infusion); 2) abomasal infusion of SDA-enhanced SBO (SDA-abo) and 3) ruminal infusion of SDA-enhanced SBO (SDA-rum). Oil infusions (210 g/d) provided 57 g/d of stearidonic acid and infusion periods were 7 d with a 7 d washout between periods. […]
Cows were milked twice a day with two milk samples obtained at each milking. One milk sample was analyzed for major components (i.e., fat, protein, lactose) by infrared analysis. The second milk sample was analyzed for fatty acids with extraction, methylation and gas chromatographic analysis. Fatty acids were quantified using pure methyl ester standards and a butter oil reference standard was analyzed periodically to monitor column performance and correction factors for individual fatty acids. […]

transfer efficiency of SDA to milk fat: 39.3%
Compound: CC/C=C\C/C=C\C/C=C\C/C=C\CCCCC(=O)O [SDA, stearidonic acid]
